# Laboratory results as given in patent US10259808B2 (Genentech, Inc., priority 2015, dated 2019).
# Where a name gives a salt, the structure may show the parent alone.
# Biological target: T1, RORc ligand binding domain (Homo sapiens, UniProt P51449)
# T1 sequence (P51449 269-508 limits assumed): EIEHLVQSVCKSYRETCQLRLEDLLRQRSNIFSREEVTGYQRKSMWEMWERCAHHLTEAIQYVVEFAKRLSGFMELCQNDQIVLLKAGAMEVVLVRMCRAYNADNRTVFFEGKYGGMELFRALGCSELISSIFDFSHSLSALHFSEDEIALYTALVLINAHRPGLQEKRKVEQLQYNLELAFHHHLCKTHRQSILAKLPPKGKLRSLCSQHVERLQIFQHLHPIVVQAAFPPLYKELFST
# Experiment: In vitro RORc ligand binding assay (25-[3H]hydroxycholesterol displacement)
# Details: not given
row,Structure (SMILES),IC50
1,C[C@H]1CC[C@H](c2ccccc2)S(=O)(=O)N1Cc1ccc(C2(C(=O)n3nccc3N)CCOCC2)cc1F,19.6 nM
2,Cc1nnc(COCC2(c3ccc(CN4[C@@H](C)CC[C@H](c5ccccc5)S4(=O)=O)c(F)c3)CCOCC2)o1,90.3 nM
3,C[C@H]1CC[C@H](c2ccccc2)S(=O)(=O)N1Cc1ccc(C2(C(=O)NC3CCOCC3)CCOCC2)cc1F,171 nM
4,"C[C@H]1CC[C@@H](c2ccccc2)S(=O)(=O)N1Cc1cc(F)c([C@]2(c3c[nH]c(=O)o3)C[C@@](O)(C3(C)CC3)C2)cc1F (racemic) [Example 166, 5-[1-[2,5-difluoro-4-[[rac-(3S,6S)-3-methyl-1,1-dioxo-6-phenyl-thiazinan-2-yl]methyl]phenyl]-3-hydroxy-3-(1-methylcyclopropyl)cyclobutyl]-3H-oxazol-2-one]",15.5 nM
5,"C[C@H]1CC[C@H](c2ccccc2)S(=O)(=O)N1Cc1cc(F)c([C@]2(c3nn(C)c(=O)[nH]3)C[C@@](C)(O)C2)cc1F (racemic) [Example 168, 5-[1-[2,5-difluoro-4-[[rac-(3S,6R)-3-methyl-1,1-dioxo-6-phenyl-thiazinan-2-yl]methyl]phenyl]-3-hydroxy-3-methyl-cyclobutyl]-2-methyl-4H-1,2,4-triazol-3-one]",39.8 nM
6,"COC[C@]1(O)C[C@@](c2n[nH]c(=O)o2)(c2cc(F)c(CN3[C@@H](C)CC[C@H](c4ccccc4)S3(=O)=O)cc2F)C1 (racemic) [Example 169, 5-[1-[2,5-difluoro-4-[[rac-(3S,6R)-3-methyl-1,1-dioxo-6-phenyl-thiazinan-2-yl]methyl]phenyl]-3-hydroxy-3-(methoxymethyl)cyclobutyl]-3H-1,3,4-oxadiazol-2-one]",6.4 nM
7,"C[C@H]1CC[C@H](c2ccccc2)S(=O)(=O)N1Cc1cc(F)c([C@]2([C@@H](O)Cc3ncn[nH]3)C[C@](C)(O)C2)cc1F (racemic) [Example 170, 3-[2,5-difluoro-4-[[rac-(3S,6R)-3-methyl-1,1-dioxo-6-phenyl-thiazinan-2-yl]methyl]phenyl]-1-methyl-3-[rac-(1S)-1-hydroxy-2-(1H-1,2,4-triazol-5-yl)ethyl]cyclobutanol]",29.5 nM
8,"C[C@H]1CC[C@H](c2ccccc2)S(=O)(=O)N1Cc1cc(F)c([C@]2([C@H](O)Cc3ncn[nH]3)C[C@](C)(O)C2)cc1F (racemic) [Example 171, 3-[2,5-difluoro-4-[[rac-(3S,6R)-3-methyl-1,1-dioxo-6-phenyl-thiazinan-2-yl]methyl]phenyl]-1-methyl-3-[rac-(1R)-1-hydroxy-2-(1H-1,2,4-triazol-5-yl)ethyl]cyclobutanol]",50.3 nM
9,"C[C@H]1CC[C@H](c2ccccc2)S(=O)(=O)N1Cc1cc(F)c([C@]2([C@H]3CNC(=O)O3)C[C@](C)(O)C2)cc1F (racemic) [Example 172, rac-(5S)-5-[1-[2,5-difluoro-4-[[rac-(3S,6R)-3-methyl-1,1-dioxo-6-phenyl-thiazinan-2-yl]methyl]phenyl]-3-hydroxy-3-methyl-cyclobutyl]oxazolidin-2-one]",51.9 nM
10,"C[C@H]1CC[C@H](c2ccccc2)S(=O)(=O)N1Cc1cc(F)c([C@]2(c3n[nH]c(=O)o3)C[C@](C)(N)C2)cc1F (racemic) [Example 173, 5-[3-amino-1-[2,5-difluoro-4-[[rac-(3S,6R)-3-methyl-1,1-dioxo-6-phenyl-thiazinan-2-yl]methyl]phenyl]-3-methyl-cyclobutyl]-3H-1,3,4-oxadiazol-2-one; hydrochloride]",180 nM
11,"C[C@H]1CC[C@H](c2ccccc2)S(=O)(=O)N1Cc1cc(F)c([C@]2(c3nn(CC#N)c(=O)o3)C[C@](C)(O)C2)cc1F (racemic) [Example 174, 2-[5-[1-[2,5-difluoro-4-[[rac-(3S,6R)-3-methyl-1,1-dioxo-6-phenyl-thiazinan-2-yl]methyl]phenyl]-3-hydroxy-3-methyl-cyclobutyl]-2-oxo-1,3,4-oxadiazol-3-yl]acetonitrile]",23 nM
12,"C[C@H]1CC[C@H](c2ccccc2)S(=O)(=O)N1Cc1cc(F)c([C@]2(c3noc(=O)[nH]3)C[C@@](C)(O)C2)cc1F (racemic) [Example 175, 3-[1-[2,5-difluoro-4-[[rac-(3S,6R)-3-methyl-1,1-dioxo-6-phenyl-thiazinan-2-yl]methyl]phenyl]-3-hydroxy-3-methyl-cyclobutyl]-4H-1,2,4-oxadiazol-5-one]",62 nM
13,"C[C@H]1CC[C@H](c2ccccc2)S(=O)(=O)N1Cc1cc(F)c([C@]2(c3n[nH]c(=O)o3)C[C@@](O)(CC#N)C2)cc1F (racemic) [Example 176, 2-[3-[2,5-difluoro-4-[[rac-(3S,6R)-3-methyl-1,1-dioxo-6-phenyl-thiazinan-2-yl]methyl]phenyl]-1-hydroxy-3-(2-oxo-3H-1,3,4-oxadiazol-5-yl)cyclobutyl]acetonitrile]",5.4 nM
14,"C[C@H]1CC[C@H](c2ccccc2)S(=O)(=O)N1Cc1cc(F)c([C@]2(Cn3cn[nH]c3=O)C[C@](C)(O)C2)cc1F (racemic) [Example 178, 4-[[1-[2,5-difluoro-4-[[rac-(3S,6R)-3-methyl-1,1-dioxo-6-phenyl-thiazinan-2-yl]methyl]phenyl]-3-hydroxy-3-methyl-cyclobutyl]methyl]-1H-l,2,4-triazol-5-one]",6.1 nM

# The next lines start with the values.
row,IC50,Structure (SMILES)
1,6900 nM,"C[C@H]1CC[C@H](c2ccccc2)S(=O)(=O)N1Cc1cc(F)c([C@]2(CN3C(=O)CNC3=O)C[C@](C)(O)C2)cc1F (racemic) [Example 179, 3-[[1-[2,5-difluoro-4-[[rac-(3S,6R)-3-methyl-1,1-dioxo-6-phenyl-thiazinan-2-yl]methyl]phenyl]-3-hydroxy-3-methyl-cyclobutyl]methyl]imidazolidine-2,4-dione]"
2,8 nM,"C[C@H]1CC[C@H](c2ccccc2)S(=O)(=O)N1Cc1cc(F)c([C@]2(COc3cnccn3)C[C@](C)(O)C2)cc1F (racemic) [Example 180, 3-[2,5-difluoro-4-[[rac-(3S,6R)-3-methyl-1,1-dioxo-6-phenyl-thiazinan-2-yl]methyl]phenyl]-1-methyl-3-(pyrazin-2-yloxymethyl)cyclobutanol]"
3,13 nM,"C[C@H]1CC[C@H](c2ccccc2)S(=O)(=O)N1Cc1cc(F)c([C@]2(NC(=O)c3csnn3)C[C@](C)(O)C2)cc1F (racemic) [Example 181, N-[1-[2,5-difluoro-4-[[rac-(3S,6R)-3-methyl-1,1-dioxo-6-phenyl-thiazinan-2-yl]methyl]phenyl]-3-hydroxy-3-methyl-cyclobutyl]thiadiazole-4-carboxamide]"
4,7.3 nM,"C[C@H]1CC[C@H](c2ccccc2)S(=O)(=O)N1Cc1cc(F)c([C@]2(Cn3cncn3)C[C@](C)(O)C2)cc1F (racemic) [Example 182, 3-[2,5-difluoro-4-[[rac-(3S,6R)-3-methyl-1,1-dioxo-6-phenyl-thiazinan-2-yl]methyl]phenyl]-1-methyl-3-(1,2,4-triazol-1-ylmethyl)cyclobutanol]"
5,170 nM,"C[C@H]1CC[C@H](c2ccccc2)S(=O)(=O)N1Cc1cc(F)c([C@]2(Cn3ncccc3=O)C[C@](C)(O)C2)cc1F (racemic) [Example 183, 2-[[1-[2,5-difluoro-4-[[rac-(3S,6R)-3-methyl-1,1-dioxo-6-phenyl-thiazinan-2-yl]methyl]phenyl]-3-hydroxy-3-methyl-cyclobutyl]methyl]pyridazin-3-one]"
6,6.2 nM,"C[C@H]1CC[C@H](c2ccccc2)S(=O)(=O)N1Cc1cc(F)c(C2(c3c[nH]c(=O)o3)CC(O)(CC3CC3)C2)cc1F (mixture of isomers) [Example 184, 5-[3-(cyclopropylmethyl)-1-[2,5-difluoro-4-[[rac-(3S,6R)-3-methyl-1,1-dioxo-6-phenyl-thiazinan-2-yl]methyllphenyl]-3-hydroxy-cyclobutyl]-3H-oxazol-2-one]"
7,19 nM,"C[C@H]1CC[C@H](c2ccccc2)S(=O)(=O)N1Cc1cc(F)c([C@]2(c3c[nH]c(=O)[nH]3)C[C@](C)(O)C2)cc1F (racemic) [Example 185, 4-[1-[2,5-difluoro-4-[[rac-(3S,6R)-3-methyl-1,1-dioxo-6-phenyl-thiazinan-2-yl]methyl]phenyl]-3-hydroxy-3-methyl-cyclobutyl]-1,3-dihydroimidazol-2-one]"
8,4.4 nM,"C[C@H]1CC[C@H](c2ccccc2)S(=O)(=O)N1Cc1cc(F)c([C@]2(c3nc(CO)n[nH]3)C[C@](C)(O)C2)cc1F (racemic) [Example 186, 3-[2,5-difluoro-4-[[rac-(3S,6R)-3-methyl-1,1-dioxo-6-phenyl-thiazinan-2-yl]methyl]phenyl]-3-[3-(hydroxymethyl)-1H-1,2,4-triazol-5-yl]-1-methyl-cyclobutanol]"
9,10 nM,"C[C@H]1CC[C@H](c2ccccc2)S(=O)(=O)N1Cc1cc(F)c([C@]2(NCC3(C)COC3)C[C@](C)(O)C2)cc1F (racemic) [Example 187, 3-[2,5-difluoro-4-[[rac-(3S,6R)-3-methyl-1,1-dioxo-6-phenyl-thiazinan-2-yl]methyl]phenyl]-1-methyl-3-[(3-methyloxetan-3-yl)methylamino]cyclobutanol]"

# Same assay, conditions: IC50 values for RORc
row,IC50,Structure (SMILES)
1,4.3 nM,"C[C@H]1CC[C@H](c2ccccc2)S(=O)(=O)N1Cc1cc(F)c(C2(c3c[nH]c(=O)o3)CC(O)C2)cc1F (mixture of isomers) [Example 163, 5-[1-[2,5-difluoro-4-[[rac-(3S,6R)-3-methyl-1,1-dioxo-6-phenyl-thiazinan-2-yl]methyl]phenyl]-3-hydroxy-cyclobutyl]-3H-oxazol-2-one]"
2,19.2 nM,C[C@H]1CC[C@H](c2ccccc2)S(=O)(=O)N1Cc1cc(F)c([C@]2(c3nn(C)c(=O)o3)C[C@](C)(O)C2)cc1F (racemic) [Example 167]
3,4.3 nM,"C[C@H]1CC[C@H](c2ccccc2)S(=O)(=O)N1Cc1cc(F)c(C2(c3c[nH]c(=O)o3)CC(O)C2)cc1F (mixture of isomers) [Example 177, 5-[1-[2,5-difluoro-4-[[rac-(3S,6R)-3-methyl-1,1-dioxo-6-phenyl-thiazinan-2-yl]methyl]phenyl]-3-hydroxy-cyclobutyl]-3H-oxazol-2-one]"
